The values below come from ChEMBL document CHEMBL1914313, “Monosubstituted γ-lactam and conformationally constrained 1,3-diaminopropan-2-ol transition-state isostere inhibitors of β-secretase (BACE)” (Bioorg Med Chem Lett, 2011).

The term IC50 denotes the concentration at which inhibition is half-maximal. The low end stands for higher potency, the high end for lower potency. As a reminder, the efflux ratio is a quotient of directional permeabilities that is used to spot active efflux.

The target of data set [1] is T1, Beta-secretase 1 (Homo sapiens, UniProt P56817). The data set can be described thus: Inhibition of BACE1 by HPLC method.
T1 sequence (P56817 whole entry): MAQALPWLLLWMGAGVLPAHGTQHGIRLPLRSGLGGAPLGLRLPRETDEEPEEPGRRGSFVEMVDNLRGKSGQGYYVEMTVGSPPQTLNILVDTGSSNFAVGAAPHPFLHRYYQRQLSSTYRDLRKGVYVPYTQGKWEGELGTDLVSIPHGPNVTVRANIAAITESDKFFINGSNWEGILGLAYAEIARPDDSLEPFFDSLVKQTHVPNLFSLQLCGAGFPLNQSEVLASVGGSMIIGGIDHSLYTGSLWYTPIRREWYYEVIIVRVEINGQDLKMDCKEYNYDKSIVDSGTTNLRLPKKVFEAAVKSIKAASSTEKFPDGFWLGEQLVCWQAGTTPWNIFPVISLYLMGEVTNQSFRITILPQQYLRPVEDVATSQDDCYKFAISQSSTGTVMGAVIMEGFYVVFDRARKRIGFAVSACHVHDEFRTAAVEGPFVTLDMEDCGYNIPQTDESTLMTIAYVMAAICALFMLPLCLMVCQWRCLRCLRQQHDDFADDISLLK
The target in data set [2] is T1, Beta-secretase 1. The data set is described as follows: Inhibition of BACE1 in human HEK293 cells expressing swedish mutant APP. It is filed as cell-based.
Data set [3] relates to P-glycoprotein. The data set can be described thus: Efflux ratio of permeability across basolateral to apical side over apical to basolateral side in human Caco2 cells expressing p-glycoprotein. It counts as ADME, cell-based. The conditions noted are these: Caco-2. In general terms: Caco-2 monolayers are a common model of the intestinal barrier.

Take `CCC(C)[C@@]1(NC(C)=O)CCN([C@@H](CCc2ccccc2)C(=O)N[C@@H](Cc2cc(F)cc(F)c2)[C@H](O)[C@H]2C[C@@H](Oc3ccccn3)CN2)C1=O` (some centres not stated): the half-inhibitory concentration (IC50) in data set [1] amounted to 0.0026 µM; in data set [2], 0.0021 µM. Turning to `CC(C)C[C@H]1CCN([C@@H](CCc2ccccc2)C(=O)N[C@@H](Cc2cc(F)cc(F)c2)[C@H](O)[C@H]2C[C@@H](Oc3ccccn3)CN2)C1=O`, in data set [2], 0.51 µM corresponded to half-maximal inhibition (IC50). As to `CCCO[C@H]1CN[C@@H]([C@@H](O)[C@H](Cc2cc(F)cc(F)c2)NC(=O)[C@H](C)N2CC[C@H](C(C)C)C2=O)C1`, the IC50 in data set [1] came out at 0.16 µM; in data set [2], 0.39 µM. `CCC(C)[C@@]1(NC(C)=O)CCN([C@@H](CCc2ccccc2)C(=O)N[C@@H](Cc2cc(F)cc(F)c2)[C@H](O)[C@H]2C[C@@H](OCc3cccnc3)CN2)C1=O` (some centres not stated): the IC50 turned out to be 0.0014 µM in data set [1] and 0.002 µM in data set [2]. With `CCCC[C@H]1CCN([C@@H](CCc2ccccc2)C(=O)N[C@@H](Cc2cc(F)cc(F)c2)[C@H](O)CNCc2cccc(OC)c2)C1=O`, the IC50 in data set [1] is 0.038 µM; in data set [2], 0.35 µM. Take `CCC[C@@H](O)[C@H]1CCN([C@@H](C)C(=O)N[C@@H](Cc2cc(F)cc(F)c2)[C@H](O)[C@H]2C[C@H](O)CN2)C1=O`: the values for the IC50 in data set [1] and in data set [2] were 0.04 µM and 0.87 µM, respectively. In data set [2], `CCC(C)[C@@]1(NC(C)=O)CCN([C@@H](CCc2ccccc2)C(=O)N[C@@H](Cc2cc(F)cc(F)c2)[C@H](O)[C@H]2C[C@@H](OCc3ccccc3)CN2)C1=O` (some centres not stated) yielded an IC50 of 0.012 µM. In the case of `CCCO[C@H]1CN[C@@H]([C@@H](O)[C@H](Cc2cc(F)cc(F)c2)NC(=O)[C@H](CCc2ccccc2)N2CC[C@H](COC)C2=O)C1`, the IC50 in data set [1] is 0.023 µM; in data set [2], 0.089 µM. The corresponding values for `CCC(C)[C@@]1(NC(C)=O)CCN([C@@H](CCc2ccccc2)C(=O)N[C@@H](Cc2cc(F)cc(F)c2)[C@H](O)[C@H]2C[C@@H](Oc3ccccc3)CN2)C1=O` (some centres not stated) are 0.0026 µM and 0.0014 µM. `CC(C)C[C@H]1CCN([C@@H](C)C(=O)N[C@@H](Cc2cc(F)cc(F)c2)[C@H](O)[C@H]2C[C@@H](Oc3ccccn3)CN2)C1=O`: the IC50 in data set [2] worked out at 0.33 µM. `COC[C@H]1CCN([C@@H](CCc2ccccc2)C(=O)N[C@@H](Cc2cc(F)cc(F)c2)[C@H](O)CNCc2cccc(OC)c2)C1=O`: the IC50 in data set [1] was 0.032 µM; in data set [2], 0.21 µM. For `COc1cccc(CNC[C@@H](O)[C@H](Cc2cc(F)cc(F)c2)NC(=O)[C@H](CCc2ccccc2)N2CC[C@H](C(C)C)C2=O)c1` the same measures were 0.075 µM and 0.22 µM. For `CCC[C@@H](O)[C@H]1CCN([C@@H](C)C(=O)N[C@@H](Cc2cc(F)cc(F)c2)[C@H](O)CNCc2cccc(OC)c2)C1=O` the same measures were 0.068 µM and 0.027 µM. For the compound `COc1cccc(CNC[C@@H](O)[C@H](Cc2cc(F)cc(F)c2)NC(=O)[C@H](C)N2CC[C@@](CC3CC3)(NC(C)=O)C2=O)c1`, the results for the IC50 in data set [1] and in data set [2] were 0.046 µM and 0.027 µM, respectively. The corresponding values for `COc1cccc(CNC[C@@H](O)[C@H](Cc2cc(F)cc(F)c2)NC(=O)[C@H](CCc2ccccc2)N2CC[C@@](CC3CC3)(NC(C)=O)C2=O)c1` are 0.011 µM and 0.01 µM. The corresponding values for `CCC(C)[C@@]1(NC(C)=O)CCN([C@@H](CCc2ccccc2)C(=O)N[C@@H](Cc2cc(F)cc(F)c2)[C@H](O)[C@H]2C[C@@H](OCc3cccc(C(F)(F)F)c3)CN2)C1=O` (some centres not stated) are 0.0027 µM and 0.071 µM.

As for `CCC(C)[C@@]1(NC(C)=O)CCN([C@@H](CCc2ccccc2)C(=O)N[C@@H](Cc2cc(F)cc(F)c2)[C@H](O)[C@H]2C[C@@H](OCc3ccccn3)CN2)C1=O` (some centres not stated), the IC50 in data set [1] was 0.0015 µM; in data set [2] it was 0.0013 µM.

As for `CCCO[C@H]1CN[C@@H]([C@@H](O)[C@H](Cc2cc(F)cc(F)c2)NC(=O)[C@H](CCc2ccccc2)N2CC[C@H]([C@H](O)CCC)C2=O)C1`, the results for the IC50 in data set [1] and in data set [2] were 0.0047 µM and 0.048 µM, respectively. On to `CCC(C)[C@@]1(NC(C)=O)CCN([C@@H](CCc2ccccc2)C(=O)N[C@@H](Cc2cc(F)cc(F)c2)[C@H](O)[C@H]2C[C@@H](N)CN2)C1=O` (some centres not stated), for which the IC50 in data set [1] turned out to be 0.034 µM; in data set [2], 0.27 µM. The corresponding values for `CCCC[C@H]1CCN([C@@H](CCc2ccccc2)C(=O)N[C@@H](Cc2cc(F)cc(F)c2)[C@H](O)[C@H]2C[C@H](O)CN2)C1=O` are 0.11 µM and 0.72 µM.

Take `CCCC[C@H]1CCN([C@@H](C)C(=O)N[C@@H](Cc2cc(F)cc(F)c2)[C@H](O)[C@H]2C[C@@H](OCCC)CN2)C1=O`: the values for the IC50 in data set [1] and in data set [2] were 0.087 µM and 0.068 µM, respectively. The efflux ratio in data set [3] is greater than 17. Take `CCCO[C@H]1CN[C@@H]([C@@H](O)[C@H](Cc2cc(F)cc(F)c2)NC(=O)[C@H](C)N2CC[C@H]([C@H](O)CCC)C2=O)C1`: the IC50 in data set [1] came out at 0.07 µM; in data set [2], 0.055 µM. In the case of `CCCO[C@H]1CN[C@@H]([C@@H](O)[C@H](Cc2cc(F)cc(F)c2)NC(=O)[C@H](CCc2ccccc2)N2CC[C@H](CC(C)C)C2=O)C1`, the figures for the IC50 in data set [1] and in data set [2] were 0.0057 µM and 0.069 µM, respectively. As for `CCC(C)[C@@]1(NC(C)=O)CCN([C@@H](CCc2ccccc2)C(=O)N[C@@H](Cc2cc(F)cc(F)c2)[C@H](O)[C@H]2C[C@@H](OCc3ccc(F)cc3)CN2)C1=O` (some centres not stated), the IC50 in data set [1] turned out to be 0.01 µM; in data set [2], 0.0089 µM. For the compound `CCCC[C@H]1CCN([C@@H](CCc2ccccc2)C(=O)N[C@@H](Cc2cc(F)cc(F)c2)[C@H](O)[C@H]2C[C@@H](O)CN2)C1=O`, the IC50 in data set [1] came to 0.025 µM; in data set [2], 0.65 µM.

As for `COc1cccc(CNC[C@@H](O)[C@H](Cc2cc(F)cc(F)c2)NC(=O)[C@H](C)N2CC[C@H](CC(C)C)C2=O)c1`, the figures for the IC50 in data set [1] and in data set [2] were 0.089 µM and 0.067 µM, respectively. For `CCC(C)[C@@]1(NC(C)=O)CCN([C@@H](CCc2ccccc2)C(=O)N[C@@H](Cc2cc(F)cc(F)c2)[C@H](O)[C@H]2C[C@@H](Oc3cccnc3)CN2)C1=O` (some centres not stated) the same measures were 0.0059 µM and 0.0025 µM. In the case of `CCC(C)[C@@]1(NC(C)=O)CCN([C@@H](C)C(=O)N[C@@H](Cc2cc(F)cc(F)c2)[C@H](O)[C@H]2C[C@H](O)CN2)C1=O` (some centres not stated), the values for the IC50 in data set [1] and in data set [2] were 0.031 µM and greater than 0.66 µM, respectively. Take `CCC(C)[C@@]1(NC(C)=O)CCN([C@@H](CCc2ccccc2)C(=O)N[C@@H](Cc2cc(F)cc(F)c2)[C@H](O)[C@H]2C[C@H](N)CN2)C1=O` (some centres not stated): the IC50 in data set [1] is 0.05 µM; in data set [2] it was 0.19 µM. For `CCC(C)[C@@]1(NC(C)=O)CCN([C@@H](CCc2ccccc2)C(=O)N[C@@H](Cc2cc(F)cc(F)c2)[C@H](O)[C@H]2C[C@@H](OCc3cccc(C#N)c3)CN2)C1=O` (some centres not stated), the figures for the IC50 in data set [1] and in data set [2] were 0.003 µM and 0.0042 µM, respectively. Take `COc1cccc(CNC[C@@H](O)[C@H](Cc2cc(F)cc(F)c2)NC(=O)[C@H](C)N2CC[C@H](C(C)C)C2=O)c1`: the IC50 in data set [1] turned out to be 0.17 µM; in data set [2], 0.24 µM. Consider `CCC(C)[C@@]1(NC(C)=O)CCN([C@@H](CCc2ccccc2)C(=O)N[C@@H](Cc2cc(F)cc(F)c2)[C@H](O)[C@H]2Cc3ccccc3CN2)C1=O` (some centres not stated), for which the IC50 in data set [1] worked out at 0.054 µM; in data set [2] it was 0.11 µM. In the case of `CCCO[C@H]1CN[C@@H]([C@@H](O)[C@H](Cc2cc(F)cc(F)c2)NC(=O)[C@H](C)N2CC[C@H](CC(C)C)C2=O)C1`, the IC50 in data set [1] came out at 0.035 µM; in data set [2], 0.11 µM. Moreover, the efflux ratio in data set [3] stood at 32.

Regarding `CCC[C@@H](O)[C@H]1CCN([C@@H](CCc2ccccc2)C(=O)N[C@@H](Cc2cc(F)cc(F)c2)[C@H](O)CNCc2cccc(OC)c2)C1=O`, the values for the IC50 in data set [1] and in data set [2] were 0.0052 µM and 0.09 µM, respectively. With `CC(=O)N[C@]1(CC(C)C)CCN([C@@H](CCc2ccccc2)C(=O)N[C@@H](Cc2cc(F)cc(F)c2)[C@H](O)[C@H]2Cc3ccccc3CN2)C1=O`, the IC50 in data set [1] was 0.0086 µM; in data set [2] it was 0.0095 µM. `CCC(C)[C@@]1(NC(C)=O)CCN([C@@H](CCc2ccccc2)C(=O)N[C@@H](Cc2cc(F)cc(F)c2)[C@H](O)[C@H]2C[C@@H](O)CN2)C1=O` (some centres not stated): the figures for the IC50 in data set [1] and in data set [2] were 0.0065 µM and 0.029 µM, respectively.

Turning to `CCC[C@@H](O)[C@H]1CCN([C@@H](CCc2ccccc2)C(=O)N[C@@H](Cc2cc(F)cc(F)c2)[C@H](O)[C@H]2C[C@H](O)CN2)C1=O`, the IC50 is 0.016 µM in data set [1] and 0.22 µM in data set [2].

Turning to `CCCO[C@H]1CN[C@@H]([C@@H](O)[C@H](Cc2cc(F)cc(F)c2)NC(=O)[C@H](CCc2ccccc2)N2CC[C@H](C(C)C)C2=O)C1`, the IC50 came to 0.021 µM in data set [1] and 0.099 µM in data set [2]. As for `COC[C@H]1CCN([C@@H](C)C(=O)N[C@@H](Cc2cc(F)cc(F)c2)[C@H](O)CNCc2cccc(OC)c2)C1=O`, the values for the IC50 in data set [1] and in data set [2] were 0.48 µM and 0.4 µM, respectively. The corresponding values for `COc1cccc(CNC[C@@H](O)[C@H](Cc2cc(F)cc(F)c2)NC(=O)[C@H](CCc2ccccc2)N2CC[C@H](CC(C)C)C2=O)c1` are 0.02 µM and 0.24 µM. `CCCC[C@H]1CCN([C@@H](CCc2ccccc2)C(=O)N[C@@H](Cc2cc(F)cc(F)c2)[C@H](O)[C@H]2C[C@@H](Oc3ccccn3)CN2)C1=O` registered an IC50 in data set [2] of 0.36 µM. Regarding `CCC(C)[C@@]1(NC(C)=O)CCN([C@@H](CCc2ccccc2)C(=O)N[C@@H](Cc2cc(F)cc(F)c2)[C@H](O)CNCc2cccc(OC)c2)C1=O` (some centres not stated), half-maximal inhibition in data set [1] (IC50) was put at 0.0061 µM. Regarding `CCCO[C@H]1CN[C@@H]([C@@H](O)[C@H](Cc2cc(F)cc(F)c2)NC(=O)[C@H](CCc2ccccc2)N2CC[C@@](CC(C)C)(NC(C)=O)C2=O)C1`, in data set [3], the efflux ratio is greater than 12. The compound further gave an IC50 in data set [2] of 0.002 µM. As for `CCCC[C@H]1CCN([C@@H](C)C(=O)N[C@@H](Cc2cc(F)cc(F)c2)[C@H](O)[C@H]2C[C@H](O)CN2)C1=O`, the IC50 came to 0.096 µM in data set [1] and 1.4 µM in data set [2]. On to `CCC(C)[C@@]1(NC(C)=O)CCN([C@@H](CCc2ccccc2)C(=O)N[C@@H](Cc2cc(F)cc(F)c2)[C@H](O)[C@H]2Cc3cccc(OC)c3CN2)C1=O` (some centres not stated), for which the results for the IC50 in data set [1] and in data set [2] were 0.0042 µM and 0.02 µM, respectively.
